The target of series [1] is aggregated Aβ (amyloid) from Aβ1-42 (Homo sapiens, UniProt P05067). The text has this: Affinity of the present compounds with amyloid was examined by the following in vitro binding tests.
For series [2] the following is noted: [^125I]-labeled compounds, normal mice, brain; cited from earlier work.
For series [3] the following is noted: International Publication No. WO03/106439; cited from earlier work.
The conditions of series [4]: [^11C]-labeled, rats; cited from earlier work.

Each structure is given as a SMILES string. Like-named read-outs stand apart in the source and are kept apart here.

Sequence of aggregated Aβ (amyloid) from Aβ1-42 (P05067 672-713): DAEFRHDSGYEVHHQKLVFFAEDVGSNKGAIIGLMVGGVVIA

On to `COc1ccc2nc(-c3ccc([125I])cc3)cn2c1` [[^125I]-2 (4′-iodophenyl)-6-methoxyimidazo[1,2-a]pyridine], for which the “radioactive count specifically attached to amyloid (A−B) versus concentration of amyloid” value in series [1] (amyloid 25, 62.5, 250, 625 and 1000 nmol/L, 22° C., 3 hours, non-specific count B subtracted) was “increase proportionally to the concentration of amyloid”. Besides, the “capability of binding to amyloid” value in series [1] (conclusion from in vitro binding test) was “highly capable of binding to amyloid”. Turning to `CN(C)c1ccc(-c2nc3ccc(I)cc3s2)cc1` [TZDM, 6-iodo-2-[4′-(N,N-dimethylamino)phenyl]benzothiazole], the “clearance from normal tissues” value in series [2] is on record as “insufficient in clearance from normal tissues”. Regarding `CC(=C(C#N)C#N)c1ccc2cc(N(C)CCF)ccc2c1` [FDDNP, 2-(1-{6-[(2-fluoroethyl)(methyl)amino]-2-naphthyl}ethylidene)malononitrile], the “reverse mutation test result” value in series [3] was “positive”.

Turning to `CN(C)c1ccc(/C=C/c2ccc(I)cc2)cc1` [m-I-SB, (E)-4-dimethylamino-4′-iodostilbene], the “clearance from normal tissues” value in series [2] is reported as “insufficient in clearance from normal tissues”.

On to `CN(C)c1ccc(-c2cn3cc(I)ccc3n2)cc1` [IMPY, 6-iodo-2-[4′-(N,N-dimethylamino)phenyl]imidazo[1,2-a]pyridine], for which the “reverse mutation test result” value in series [3] is recorded as “positive”. Turning to `CNc1ccc(/C=C/c2ccc(O)cc2)cc1` [SB-13, (E)-4-methylamino-4′-hydroxystilbene], in series [4], the “clearance from normal tissues” value is recorded as “it cannot be said that the clearance is sufficiently fast”.

The values above are taken from patent US20100216994A1, “USE OF NOVEL COMPOUND HAVING AFFINITY FOR AMYLOID, AND PROCESS FOR PRODUCTION OF THE SAME” (NIHON MEDI-PHYSICS CO., LTD., priority 2007, published 2010).
